Data published in US20250134897A1, “PREPARATION OF IS[…] KETO[…] METHODS OF HYPERPO[…] SIGNAL AMP[…] […] (SABRE)” (The United States of America,as represented by the …, priority 2022, published 2025).

Assays:
[1] = 13C-1 spin-lattice relaxation time (T1) at 3 T MRI system; assay type: physicochemical; details: 3 T MRsolution MRI system, solutions of DPBS with EDTA
[2] = SABRE-SHEATH 13C hyperpolarization, single-scan 13C NMR; assay type: physicochemical; details: 10 mM substrate, 45 mM DMSO, 7.8 mM Ir-IMes catalyst in methanol-d4; 55 s p-H2 bubbling at BT=−0.2 μT; ~50% p-H2; acquired after transfer to 1 T
Text: Ultra-high-purity hydrogen gas (Airgas) was fed into a Para-Hydrogen (pH2) flow cryostat (Xeus technology LTD) and enriched to about 50% parahydrogen in the presence of a spin-exchange catalyst (Fe2O3) at liquid nitrogen temperature (77 K). The pH2 flow was directed via PTFE tubing to a mass flow controller (MFC, Sierra Instruments SmartTrak 100 series) set at 90 ssc/m and directed to a conventional 5 mm NMR tube (Norell) to allow bubbling through the sample. The entire pH2 line was pressurized to 96 psi.
At least once a day, the shield was degaussed using internal coils driven by a Variac. The solenoid has 41 mm diameter (40 mm core, 20 cm long windings with 220 turns AWG20 (0.9 mm) Cu wire and with 220Ω resistor in series. The solenoid coil was driven by commercial 1.5V batteries with a variable-resistance decade box in series to provide finer control of the internal magnetic field inside the shield. Typical values of the field within the shield were between […], with SABRE SHEATH experiments typically between 0.5 μT and 0.8 μT in the sample region. The values were monitored between SABRE experiments using a Lakeshore Cryotronics Gaussmeter (Model No. 475 DSP with HMMA-2512-VR Hall Probe.
NMR experiments were performed using a 1 T Magritek Spinsolve benchtop NMR spectrometer. […]

Row | Structure (SMILES) | T1 after flip angle correction (spin-lattice relaxation time) [1] [s] | apparent T1 (spin-lattice relaxation time) ([1]; without flip angle correction) [s] | polarization P(13C) [2] [%]
1 | O=C(O)CCC(=O)C(=O)O [2-Oxopentanedioic-5-^12C-1-^13C acid] | 63.0 ± 0.835 | 32.1 ± 0.824 | –
2 | O=C(CC[12C](=O)[O-])[13C](=O)[O-].[Na+].[Na+] [sodium [1-^13C] Ketoglutarate, sodium 2-Oxopentanedioate-5-^12C-1-^13C] | – | – | ~0.24
